Consider two compounds from patent US20260092071A1, “COMPOUNDS AND COMPOSITIONS AS SMARCA2/4 DEGRADERS AND USES THEREOF” (REGENTS OF THE UNIVERSITY OF MICHIGAN, priority 2022, published 2026).

The test system of assay [1] is SMARCA4-deficient cancer cell lines. Conditions: pharmacological studies; cited from earlier work.
Assay [2] concerns the target SMARCA2 (Homo sapiens, UniProt P51531). Description: HiBiT assay for protein degradation, Hela SMARCA2-HiBiT cells (A series). The class given is cell-based. Also noted: Hela cells were genetically modified via CRISPR/Cas9 to fuse HiBiT to the carboxy terminus of SMARCA2; host or cells: HeLa (CRISPR/Cas9 HiBiT knock-in). The method, boiled down: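 HeLa cells engineered by CRISPR/Cas9 to carry a HiBiT tag fused to the C-terminus of SMARCA2 (Promega CS302365) were grown in DMEM supplemented with FBS and penicillin-streptomycin. After treatment, remaining SMARCA2 protein was quantified with the Nano-Glo® HiBiT Lytic Detection Assay (Promega N3050), and curves were fitted in GraphPad Prism.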
A general note: The HiBiT peptide binds its large partner to form an active luciferase.

Assay [3] has as its target SMARCA4 (Homo sapiens, UniProt P51532). The assay is described as follows: HiBiT assay for protein degradation, Hela SMARCA4-HiBiT cells (A series). Also on record: fuse HiBiT to the carboxy terminus of SMARCA2 (Promega CS302365) or SMARCA4 (Promega CS3023225); host or cells: HeLa (CRISPR/Cas9 HiBiT knock-in). The class given is cell-based. A digest of the protocol: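 HeLa cells engineered by CRISPR/Cas9 to carry a HiBiT tag fused to the C-terminus of SMARCA4 (Promega CS3023225) were grown in DMEM supplemented with FBS and penicillin-streptomycin. After compound exposure, remaining SMARCA4 protein was quantified using the Nano-Glo® HiBiT Lytic Detection Assay (Promega N3050), and curves were fitted in GraphPad Prism.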

The structures appear in SMILES notation.

SMARCA2, sequence (P51531 whole entry, the tested form may be a part): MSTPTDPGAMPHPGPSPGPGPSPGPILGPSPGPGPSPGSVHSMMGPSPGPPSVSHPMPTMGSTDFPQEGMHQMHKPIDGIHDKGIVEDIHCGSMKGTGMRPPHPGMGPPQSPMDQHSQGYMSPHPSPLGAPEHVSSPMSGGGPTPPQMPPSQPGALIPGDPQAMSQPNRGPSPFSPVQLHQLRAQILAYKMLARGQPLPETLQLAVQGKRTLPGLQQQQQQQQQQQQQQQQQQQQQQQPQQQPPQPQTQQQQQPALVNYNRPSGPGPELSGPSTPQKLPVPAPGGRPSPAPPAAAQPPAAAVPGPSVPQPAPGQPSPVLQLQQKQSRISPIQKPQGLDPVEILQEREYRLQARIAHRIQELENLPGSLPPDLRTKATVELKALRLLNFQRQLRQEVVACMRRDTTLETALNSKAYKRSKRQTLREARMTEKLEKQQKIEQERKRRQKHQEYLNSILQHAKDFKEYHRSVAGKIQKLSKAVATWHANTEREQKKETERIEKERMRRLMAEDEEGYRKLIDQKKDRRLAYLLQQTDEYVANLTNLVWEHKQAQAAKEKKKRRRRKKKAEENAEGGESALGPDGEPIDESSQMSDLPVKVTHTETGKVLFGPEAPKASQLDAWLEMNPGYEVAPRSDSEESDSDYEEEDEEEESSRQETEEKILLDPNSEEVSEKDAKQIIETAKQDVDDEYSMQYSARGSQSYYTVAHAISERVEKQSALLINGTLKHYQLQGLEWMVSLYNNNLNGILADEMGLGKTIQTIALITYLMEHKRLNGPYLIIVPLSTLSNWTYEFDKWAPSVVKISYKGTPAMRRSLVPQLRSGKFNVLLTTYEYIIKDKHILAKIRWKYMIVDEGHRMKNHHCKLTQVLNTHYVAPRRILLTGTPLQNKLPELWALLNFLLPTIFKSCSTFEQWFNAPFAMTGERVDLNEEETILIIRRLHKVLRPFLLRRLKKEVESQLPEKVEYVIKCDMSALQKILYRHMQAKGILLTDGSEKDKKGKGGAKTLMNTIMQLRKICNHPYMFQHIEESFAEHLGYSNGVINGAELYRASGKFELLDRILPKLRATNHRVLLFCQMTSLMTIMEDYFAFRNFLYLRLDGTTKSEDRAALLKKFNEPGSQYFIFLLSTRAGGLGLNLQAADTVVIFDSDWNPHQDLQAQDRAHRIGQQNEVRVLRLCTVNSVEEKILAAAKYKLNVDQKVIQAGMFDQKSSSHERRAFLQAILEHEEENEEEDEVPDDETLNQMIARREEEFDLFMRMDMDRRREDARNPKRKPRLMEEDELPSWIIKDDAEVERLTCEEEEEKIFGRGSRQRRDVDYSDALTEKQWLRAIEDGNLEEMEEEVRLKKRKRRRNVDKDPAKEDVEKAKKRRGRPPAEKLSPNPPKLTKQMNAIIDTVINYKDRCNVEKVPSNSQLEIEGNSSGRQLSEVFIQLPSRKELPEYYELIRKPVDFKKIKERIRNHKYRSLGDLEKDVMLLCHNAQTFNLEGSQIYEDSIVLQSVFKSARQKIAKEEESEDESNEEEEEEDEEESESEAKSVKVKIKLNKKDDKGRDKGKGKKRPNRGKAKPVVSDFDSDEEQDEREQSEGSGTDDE
SMARCA4, sequence (P51532 whole entry, the tested form may be a part): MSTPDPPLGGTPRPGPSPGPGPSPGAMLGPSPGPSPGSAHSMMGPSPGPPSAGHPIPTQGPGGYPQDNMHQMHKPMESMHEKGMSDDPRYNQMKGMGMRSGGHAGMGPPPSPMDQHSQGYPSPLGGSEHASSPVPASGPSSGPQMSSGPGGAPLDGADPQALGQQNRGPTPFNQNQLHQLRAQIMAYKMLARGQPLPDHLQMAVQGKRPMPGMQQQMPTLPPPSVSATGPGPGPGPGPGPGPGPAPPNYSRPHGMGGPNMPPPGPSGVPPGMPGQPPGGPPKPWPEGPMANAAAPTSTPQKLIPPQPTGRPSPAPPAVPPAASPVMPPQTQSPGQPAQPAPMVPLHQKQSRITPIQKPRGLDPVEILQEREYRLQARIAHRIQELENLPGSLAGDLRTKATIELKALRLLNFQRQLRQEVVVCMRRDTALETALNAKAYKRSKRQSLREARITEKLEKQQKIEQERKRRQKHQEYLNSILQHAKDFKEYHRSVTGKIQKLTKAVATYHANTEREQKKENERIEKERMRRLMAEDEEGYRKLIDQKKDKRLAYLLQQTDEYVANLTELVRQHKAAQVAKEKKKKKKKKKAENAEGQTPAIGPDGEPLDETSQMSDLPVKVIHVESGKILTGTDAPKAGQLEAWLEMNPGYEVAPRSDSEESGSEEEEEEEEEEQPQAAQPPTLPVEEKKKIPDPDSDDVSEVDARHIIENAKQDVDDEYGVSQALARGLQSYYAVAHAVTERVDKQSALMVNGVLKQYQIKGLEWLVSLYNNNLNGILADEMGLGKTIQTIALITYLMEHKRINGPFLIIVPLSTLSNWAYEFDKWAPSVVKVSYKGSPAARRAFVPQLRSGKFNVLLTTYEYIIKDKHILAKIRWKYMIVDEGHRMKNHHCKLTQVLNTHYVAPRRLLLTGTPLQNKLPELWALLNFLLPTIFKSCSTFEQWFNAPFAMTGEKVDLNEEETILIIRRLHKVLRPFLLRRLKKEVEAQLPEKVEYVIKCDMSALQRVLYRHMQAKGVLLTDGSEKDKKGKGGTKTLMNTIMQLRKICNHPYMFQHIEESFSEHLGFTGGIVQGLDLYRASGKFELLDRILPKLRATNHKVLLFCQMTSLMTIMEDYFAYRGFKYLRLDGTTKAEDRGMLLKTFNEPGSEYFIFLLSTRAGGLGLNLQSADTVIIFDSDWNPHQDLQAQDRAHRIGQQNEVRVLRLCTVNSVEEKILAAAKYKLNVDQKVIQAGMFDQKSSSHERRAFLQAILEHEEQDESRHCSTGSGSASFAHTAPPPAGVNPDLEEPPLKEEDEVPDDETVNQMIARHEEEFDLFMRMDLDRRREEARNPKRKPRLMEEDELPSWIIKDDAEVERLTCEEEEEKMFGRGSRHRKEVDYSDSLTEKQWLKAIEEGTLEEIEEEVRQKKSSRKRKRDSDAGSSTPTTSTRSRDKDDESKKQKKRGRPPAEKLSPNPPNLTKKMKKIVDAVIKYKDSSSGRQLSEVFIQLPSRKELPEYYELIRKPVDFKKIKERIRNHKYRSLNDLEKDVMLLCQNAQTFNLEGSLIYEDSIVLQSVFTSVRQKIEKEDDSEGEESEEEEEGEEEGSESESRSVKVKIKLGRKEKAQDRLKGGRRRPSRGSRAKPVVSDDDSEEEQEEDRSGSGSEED

Take `O=C(/C=C/N1C[C@H]2C[C@@H]1CN2c1ccccn1)c1ccccc1O` [PFI-3]: the antiproliferative phenotype entry in assay [1] is recorded as “fail to display an antiproliferative phenotype”.
For orientation: DC50 means the midpoint of the concentration-degradation curve. Consider `Cc1ncsc1-c1ccc([C@H](C)NC(=O)[C@@H]2C[C@@H](O)CN2C(=O)[C@@H](n2cc([C@H]3C[C@H](CN4CCC(c5ccc6c(c5)C5(CCCCC5)c5nc(=O)c7c(Br)cccc7n5-6)CC4)C3)nn2)C(C)(C)C)cc1` [Compound A61, (2S,4R)-1-((S)-2-(4-((1r,3S)-3-((4-(4′-bromo-5′-oxo-5′H-spiro[cyclohexane-1,7′-indolo[1,2-a]quinazolin]-9′-yl)piperidin-1-yl)methyl)cyclobutyl)-1H-1,2,3-triazol-1-yl)-3,3-dimethylbutanoyl)-4-hydroxy-N—((S)-1-(4-(4-methylthiazol-5-yl)phenyl)ethyl)pyrrolidine-2-carboxamide], for which the “SMARC A2 Hela HiBit Dmax (%)” value in assay [2] (Hela SMARCA2-HiBiT cells, 24 hours treatment) is given as “A (A (>90% degradation))”. The DC50 in assay [2] (read-out: SMARC A2 Hela HiBit DC50) and in assay [3] (read-out: SMARC A4 Hela HiBit DC50) was < 100 nM each time. Further, the “SMARC A4 Hela HiBit Dmax(%)” value in assay [3] (Hela SMARCA4-HiBiT cells, 24 hours treatment) is reported as “A (A (>90% degradation))”.
